How the values were obtained:
[1] = tested on: primary hippocampal neurons; assay: Aβo-dependent dendritic spine loss in primary hippocampal neurons; assay type: cell-based, mouse; details: Aβo for 4 days
From the text: FIGS. 11A-11H illustrate the finding that Aβo-induced dendritic spine deficits are prevented by deletion of Pyk2 and RhoA inhibition in primary neurons. FIG. 11A: Representative images of dendritic spine motility by standard deviation projection of time-lapse image. […] The standard deviation value for each pixel is shown by thermal color scale. Scale bar, 10 μm. FIG. 11B: Quantification of spine motility, expressed as % of changed area of spines with subtraction of changed area of dendritic shaft as background (changed area=(ΔAspine/Aspine×100)−(ΔAshaft/Ashaft×100)). […]
It was considered whether the acute effects of Aβo-induced, Pyk2-mediated decrease on spine motility might be translated into alteration in spine number over longer time periods. Dendritic spine density was measured in populations of vehicle and Aβo treated primary hippocampal neuron cultures. […]
Analysis and quantification of data were performed with Volocity software after max intensity projection. The numbers of dendritic spines were counted manually to estimate the density of primary or secondary dendritic branch by observer unaware of drug or genotype. For each condition, at least 3 dendrites were measured from each neuron and 5-7 neurons were imaged per coverslip. […]

FAK = FAK (Homo sapiens, UniProt Q05397); details: cited from earlier work
Chain of FAK (Q05397 whole entry, species assumed, the tested form may be a part): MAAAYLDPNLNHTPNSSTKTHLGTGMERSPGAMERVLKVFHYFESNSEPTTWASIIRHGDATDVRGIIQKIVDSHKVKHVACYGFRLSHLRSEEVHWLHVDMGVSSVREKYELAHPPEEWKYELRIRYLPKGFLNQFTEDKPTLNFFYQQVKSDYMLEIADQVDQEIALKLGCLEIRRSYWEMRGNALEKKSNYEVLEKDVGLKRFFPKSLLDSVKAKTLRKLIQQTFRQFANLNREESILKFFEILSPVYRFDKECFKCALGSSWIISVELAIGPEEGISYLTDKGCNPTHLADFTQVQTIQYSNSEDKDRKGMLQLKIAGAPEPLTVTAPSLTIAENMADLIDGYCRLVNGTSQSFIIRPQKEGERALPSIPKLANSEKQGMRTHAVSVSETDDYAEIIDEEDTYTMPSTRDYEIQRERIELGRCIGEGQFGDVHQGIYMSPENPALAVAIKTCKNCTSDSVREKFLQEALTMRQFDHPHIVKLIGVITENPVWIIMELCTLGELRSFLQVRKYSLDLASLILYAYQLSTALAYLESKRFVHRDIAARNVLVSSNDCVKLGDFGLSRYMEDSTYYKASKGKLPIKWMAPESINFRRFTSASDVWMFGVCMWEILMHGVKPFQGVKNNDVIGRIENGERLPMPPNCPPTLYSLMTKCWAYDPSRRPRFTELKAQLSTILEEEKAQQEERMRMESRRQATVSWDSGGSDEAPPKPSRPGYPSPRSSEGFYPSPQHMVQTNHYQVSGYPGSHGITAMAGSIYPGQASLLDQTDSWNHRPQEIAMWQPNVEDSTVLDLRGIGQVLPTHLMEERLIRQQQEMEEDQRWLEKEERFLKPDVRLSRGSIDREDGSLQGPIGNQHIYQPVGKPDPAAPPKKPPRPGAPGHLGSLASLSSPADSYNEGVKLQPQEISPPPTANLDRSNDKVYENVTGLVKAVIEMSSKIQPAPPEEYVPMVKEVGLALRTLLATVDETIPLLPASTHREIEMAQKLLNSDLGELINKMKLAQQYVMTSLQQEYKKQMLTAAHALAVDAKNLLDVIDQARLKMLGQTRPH

APP/PS1 transgenic mice = assay: Learning and memory (novel object recognition, Morris water maze) in APP/PS1 transgenic mice; assay type: in vivo, mouse; details: 12 month APP/PS1 mice, 25 mg/kg/d minipump i.p. infusion, 3-6 weeks
Description: FIG. 5A plots the time mice spent interacting with a familiar and a novel object. Mean±SEM, n=10-16 mice. *, p<0.05; **, p<0.01 by two-way ANOVA, Sidak's multiple comparisons test. FIG. 5B depicts spatial learning and memory as examined by the Morris-Water-Maze after 30 swim trials to a hidden platform. A 60 second probe trial was performed 24 hours after completion of training. Time spent in the quadrant where the hidden platform had been located. Mean±SEM of n=7-23 mice. *, p<0.05; ***, p<0.001. Dashed lines in FIGS. 5A-5B are chance (no memory). […]
The efficacy of PF-719 Pyk2 inhibitor to rescue AD transgenic phenotypes was tested by infusion for 6 weeks in 12 month APP/PS1 transgenic with pre-established memory deficits and WT mice, similar to the SAM 923 and Pyk2−/− experiments. […] The brains of these mice are analyzed for synapse density, gliosis and Aβ. […]
Mice were handled for five minutes a day for five days prior to experiment to reduce anxiety. […] Object choice was pseudorandom; the object was recorded as the familiar object for each animal. The mouse was then replaced in cage's center, not facing either object, and a total timer counted up to ten minutes. The mice were allowed to explore the object and the time it took to accumulate thirty seconds of total orofacial object exploration was recorded. […]

CCOc1ccc2nc(SCc3nc(N)nc(N4CCOCC4)n3)sc2c1 [PF-719, 4-(((6-ethoxybenzo[d]thiazol-2-yl)thio)methyl)-6-morpholino-1,3,5-triazin-2-amine]
Aβo dependent spine loss [1]: rescue fully Aβo dependent spine loss | Ki (FAK): 450 nM | learning and memory performance (APP/PS1 transgenic mice): significantly greater than Vehicle/untreated levels
